# Experimental data published in ChEMBL document CHEMBL1154382, “Preliminary SAR analysis of novel antiproliferative N(6),5'-bis-ureidoadenosine derivatives” (2009).
# Tests used:
# Type in all cases: functional
# Settings in all cases: values are per cent of control
# NCI-H460 = assay: Antiproliferative activity against human NCI-H460 cells at 10 uM assessed as cell growth inhibition relative to control
# HOP-92 = assay: Antiproliferative activity against human HOP92 cells at 10 uM assessed as cell growth inhibition relative to control
# SK-MEL-2 = assay: Antiproliferative activity against human SK-MEL-2 cells at 10 uM assessed as cell growth inhibition relative to control
# SN12C = assay: Antiproliferative activity against human SN12C cells at 10 uM assessed as cell growth inhibition relative to control
# COLO 205 = assay: Antiproliferative activity against human COLO205 cells at 10 uM assessed as cell growth inhibition relative to control
# PC-3 = assay: Antiproliferative activity against human PC3 cells at 10 uM assessed as cell growth inhibition relative to control
# OVCAR-3 = assay: Antiproliferative activity against human OVCAR-3 cells at 10 uM assessed as cell growth inhibition relative to control
# UO-31 = assay: Antiproliferative activity against human UO31 cells at 10 uM assessed as cell growth inhibition relative to control
# SK-MEL-5 = assay: Antiproliferative activity against human SK-MEL-5 cells at 10 uM assessed as cell growth inhibition relative to control
# HCC 2998 = assay: Antiproliferative activity against human HCC2998 cells at 10 uM assessed as cell growth inhibition relative to control
# DU-145 = assay: Antiproliferative activity against human DU145 cells at 10 uM assessed as cell growth inhibition relative to control
# LOX IMVI = assay: Antiproliferative activity against human LOXIMVI cells at 10 uM assessed as cell growth inhibition relative to control
# IGROV-1 = assay: Antiproliferative activity against human IGROV1 cells at 10 uM assessed as cell growth inhibition relative to control
# Malme-3M = assay: Antiproliferative activity against human MALME-3M cells at 10 uM assessed as cell growth inhibition relative to control
# U-251 = assay: Antiproliferative activity against human U251 cells at 10 uM assessed as cell growth inhibition relative to control
# OVCAR-5 = assay: Antiproliferative activity against human OVCAR5 cells at 10 uM assessed as cell growth inhibition relative to control
# CAKI-1 = assay: Antiproliferative activity against human Caki1 cells at 10 uM assessed as cell growth inhibition relative to control
# A498 = assay: Antiproliferative activity against human A498 cells at 10 uM assessed as cell growth inhibition relative to control
# MCF7 = assay: Antiproliferative activity against human MCF7 cells at 10 uM assessed as cell growth inhibition relative to control
# OVCAR-8 = assay: Antiproliferative activity against human OVCAR8 cells at 10 uM assessed as cell growth inhibition relative to control
# TK-10 = assay: Antiproliferative activity against human TK10 cells at 10 uM assessed as cell growth inhibition relative to control
# HOP-62 = assay: Antiproliferative activity against human HOP62 cells at 10 uM assessed as cell growth inhibition relative to control
# SK-OV-3 = assay: Antiproliferative activity against human SKOV3 cells at 10 uM assessed as cell growth inhibition relative to control
# NCI-H322M = assay: Antiproliferative activity against human NCI-H322M cells at 10 uM assessed as cell growth inhibition relative to control
# SK-MEL-28 = assay: Antiproliferative activity against human SK-MEL-28 cells at 10 uM assessed as cell growth inhibition relative to control
# NCI-H23 = assay: Antiproliferative activity against human NCI-H23 cells at 10 uM assessed as cell growth inhibition relative to control
# K562 = assay: Antiproliferative activity against human K562 cells at 10 uM assessed as cell growth inhibition relative to control
# NCI-H522 = assay: Antiproliferative activity against human NCI-H522 cells at 10 uM assessed as cell growth inhibition relative to control
# KM12 = assay: Antiproliferative activity against human KM12 cells at 10 uM assessed as cell growth inhibition relative to control
# SF-539 = assay: Antiproliferative activity against human SF539 cells at 10 uM assessed as cell growth inhibition relative to control
# NCI-H226 = assay: Antiproliferative activity against human NCI-H226 cells at 10 uM assessed as cell growth inhibition relative to control
# SW-620 = assay: Antiproliferative activity against human SW620 cells at 10 uM assessed as cell growth inhibition relative to control
# SNB-19 = assay: Antiproliferative activity against human SNB19 cells at 10 uM assessed as cell growth inhibition relative to control
# UACC-257 = assay: Antiproliferative activity against human UACC257 cells at 10 uM assessed as cell growth inhibition relative to control
# [1] = Antiproliferative activity against human […] cells at 10 uM assessed as cell growth inhibition relative to control
# OVCAR-4 = assay: Antiproliferative activity against human OVCAR4 cells at 10 uM assessed as cell growth inhibition relative to control
# CCRF-CEM = assay: Antiproliferative activity against human CCRF-CEM cells at 10 uM assessed as cell growth inhibition relative to control
# SF-268 = assay: Antiproliferative activity against human SF268 cells at 10 uM assessed as cell growth inhibition relative to control
# HCT-116 = assay: Antiproliferative activity against human HCT116 cells at 10 uM assessed as cell growth inhibition relative to control
# A549 = assay: Antiproliferative activity against human A549 cells at 10 uM assessed as cell growth inhibition relative to control
# EKVX = assay: Antiproliferative activity against human EKVX cells at 10 uM assessed as cell growth inhibition relative to control
# UACC-62 = assay: Antiproliferative activity against human UACC62 cells at 10 uM assessed as cell growth inhibition relative to control
# MDA-MB-468 = assay: Antiproliferative activity against human MDA-MB-468 cells at 10 uM assessed as cell growth inhibition relative to control
# M14 = assay: Antiproliferative activity against human M14 cells at 10 uM assessed as cell growth inhibition relative to control
# T47D = assay: Antiproliferative activity against human T47D cells at 10 uM assessed as cell growth inhibition relative to control
# SF-295 = assay: Antiproliferative activity against human SF295 cells at 10 uM assessed as cell growth inhibition relative to control
# HL-60(TB) = assay: Antiproliferative activity against human HL-60(TB) cells at 10 uM assessed as cell growth inhibition relative to control
# RXF 393 = assay: Antiproliferative activity against human RXF393 cells at 10 uM assessed as cell growth inhibition relative to control
# SNB-75 = assay: Antiproliferative activity against human SNB75 cells at 10 uM assessed as cell growth inhibition relative to control
# HT-29 = assay: Antiproliferative activity against human HT-29 cells at 10 uM assessed as cell growth inhibition relative to control
# BT-549 = assay: Antiproliferative activity against human BT549 cells at 10 uM assessed as cell growth inhibition relative to control
# [2] = Antiproliferative activity against human Hs 578T cells at 10 uM assessed as cell growth inhibition relative to control
# 786-0 = assay: Antiproliferative activity against human 786-0 cells at 10 uM assessed as cell growth inhibition relative to control
# MOLT-4 = assay: Antiproliferative activity against human MOLT4 cells at 10 uM assessed as cell growth inhibition relative to control
# ACHN = assay: Antiproliferative activity against human ACHN cells at 10 uM assessed as cell growth inhibition relative to control
# MDA-MB-231 = assay: Antiproliferative activity against human MDA-MB-231 cells at 10 uM assessed as cell growth inhibition relative to control
# HCT-15 = assay: Antiproliferative activity against human HCT15 cells at 10 uM assessed as cell growth inhibition relative to control
smiles,measurement,setting,value
CCOC(=O)C=C1[C@@H](O[Si](C)(C)C(C)(C)C)[C@H](n2cnc3c(N)ncnc32)O[C@@H]1CNC(=O)NC,"growth, % of control at 10 µM",NCI-H460,110%
same,"growth, % of control at 10 µM",HOP-92,90%
same,"growth, % of control at 10 µM",SK-MEL-2,94%
same,"growth, % of control at 10 µM",SN12C,90%
same,"growth, % of control at 10 µM",COLO 205,76%
same,"growth, % of control at 10 µM",PC-3,93%
same,"growth, % of control at 10 µM",OVCAR-3,65%
same,"growth, % of control at 10 µM",UO-31,76%
same,"growth, % of control at 10 µM",SK-MEL-5,75%
same,"growth, % of control at 10 µM",HCC 2998,71%
same,"growth, % of control at 10 µM",DU-145,71%
same,"growth, % of control at 10 µM",LOX IMVI,74%
same,"growth, % of control at 10 µM",IGROV-1,46%
same,"growth, % of control at 10 µM",Malme-3M,105%
same,"growth, % of control at 10 µM",U-251,53%
same,"growth, % of control at 10 µM",OVCAR-5,88%
same,"growth, % of control at 10 µM",CAKI-1,85%
same,"growth, % of control at 10 µM",A498,78%
same,"growth, % of control at 10 µM",MCF7,94%
same,"growth, % of control at 10 µM",OVCAR-8,104%
same,"growth, % of control at 10 µM",TK-10,85%
same,"growth, % of control at 10 µM",HOP-62,99%
same,"growth, % of control at 10 µM",SK-OV-3,102%
same,"growth, % of control at 10 µM",NCI-H322M,81%
same,"growth, % of control at 10 µM",SK-MEL-28,111%
same,"growth, % of control at 10 µM",NCI-H23,99%
same,"growth, % of control at 10 µM",K562,84%
same,"growth, % of control at 10 µM",NCI-H522,74%
same,"growth, % of control at 10 µM",KM12,60%
same,"growth, % of control at 10 µM",SF-539,92%
same,"growth, % of control at 10 µM",NCI-H226,90%
same,"growth, % of control at 10 µM",SW-620,88%
same,"growth, % of control at 10 µM",SNB-19,88%
same,"growth, % of control at 10 µM",UACC-257,95%
same,"growth, % of control at 10 µM",[1],81%
same,"growth, % of control at 10 µM",OVCAR-4,71%
same,"growth, % of control at 10 µM",CCRF-CEM,119%
same,"growth, % of control at 10 µM",SF-268,98%
same,"growth, % of control at 10 µM",HCT-116,52%
same,"growth, % of control at 10 µM",A549,100%
same,"growth, % of control at 10 µM",EKVX,86%
same,"growth, % of control at 10 µM",UACC-62,79%
same,"growth, % of control at 10 µM",MDA-MB-468,71%
same,"growth, % of control at 10 µM",M14,87%
same,"growth, % of control at 10 µM",T47D,79%
same,"growth, % of control at 10 µM",SF-295,88%
same,"growth, % of control at 10 µM",HL-60(TB),76%
same,"growth, % of control at 10 µM",RXF 393,105%
same,"growth, % of control at 10 µM",SNB-75,98%
same,"growth, % of control at 10 µM",HT-29,65%
same,"growth, % of control at 10 µM",BT-549,80%
same,"growth, % of control at 10 µM",[2],107%
same,"growth, % of control at 10 µM",786-0,77%
same,"growth, % of control at 10 µM",MOLT-4,75%
same,"growth, % of control at 10 µM",ACHN,70%
same,"growth, % of control at 10 µM",MDA-MB-231,81%
same,"growth, % of control at 10 µM",HCT-15,90%
